By melting point is commonly meant the temperature, or range, at which the solid turns liquid.

From patent publication US20170327494A1, “NON-INVASIVE VENTILATION WITH HIGH FREQUENCY OSCILLATIONS” (KONINKLIJKE PHILIPS N.V., priority 2014, published 2017) come the findings set out here.

Molecule `N#C/C(=C1/SCC(c2cc(Cl)sc2Cl)S1)n1ccnc1` (stereo not shown) [I.h.25, (2E)-2-[4-(2,5-dichloro-3-thienyl)-1,3-dithiolan-2-ylidene]-2-imidazol-1-yl-acetonitrile] returned a melting point of 117 to 119 °C.
